# Values quoted from earlier work in patent publication US5041577A, “Organogermanium compounds, processes for producing the same, and agent for inhibiting the activity of opioid peptide-degrading enzyme” (Asai Germanium Research Institute Co., Ltd., priority 1989, dated 1991).
# Columns and labels:
# [1] = test system: spontaneous hypertensive rats
smiles,measurement,setting,value
O=C(O)C[CH2][Ge](=[O])[O][Ge](=[O])[CH2]CC(=O)O [carboxyethylgermanium sesquioxide],hypotensive action,[1],shows a hypotensive action
same,macrophage-augmenting action,macrophage,macrophage-augmenting action
same,amyloidosis-alleviating action,amyloidosis,amyloidosis-alleviating action
same,antitumor action,tumor,antitumor action
same,interferon-inducing action,interferon,interferon-inducing action
